Data: US20220395496A1 (Hoffmann-La Roche Inc., priority 2019, published 2022)

Target: T1, human TLR8 (Homo sapiens, UniProt Q9NR97)
T1 sequence (Q9NR97 27-1041): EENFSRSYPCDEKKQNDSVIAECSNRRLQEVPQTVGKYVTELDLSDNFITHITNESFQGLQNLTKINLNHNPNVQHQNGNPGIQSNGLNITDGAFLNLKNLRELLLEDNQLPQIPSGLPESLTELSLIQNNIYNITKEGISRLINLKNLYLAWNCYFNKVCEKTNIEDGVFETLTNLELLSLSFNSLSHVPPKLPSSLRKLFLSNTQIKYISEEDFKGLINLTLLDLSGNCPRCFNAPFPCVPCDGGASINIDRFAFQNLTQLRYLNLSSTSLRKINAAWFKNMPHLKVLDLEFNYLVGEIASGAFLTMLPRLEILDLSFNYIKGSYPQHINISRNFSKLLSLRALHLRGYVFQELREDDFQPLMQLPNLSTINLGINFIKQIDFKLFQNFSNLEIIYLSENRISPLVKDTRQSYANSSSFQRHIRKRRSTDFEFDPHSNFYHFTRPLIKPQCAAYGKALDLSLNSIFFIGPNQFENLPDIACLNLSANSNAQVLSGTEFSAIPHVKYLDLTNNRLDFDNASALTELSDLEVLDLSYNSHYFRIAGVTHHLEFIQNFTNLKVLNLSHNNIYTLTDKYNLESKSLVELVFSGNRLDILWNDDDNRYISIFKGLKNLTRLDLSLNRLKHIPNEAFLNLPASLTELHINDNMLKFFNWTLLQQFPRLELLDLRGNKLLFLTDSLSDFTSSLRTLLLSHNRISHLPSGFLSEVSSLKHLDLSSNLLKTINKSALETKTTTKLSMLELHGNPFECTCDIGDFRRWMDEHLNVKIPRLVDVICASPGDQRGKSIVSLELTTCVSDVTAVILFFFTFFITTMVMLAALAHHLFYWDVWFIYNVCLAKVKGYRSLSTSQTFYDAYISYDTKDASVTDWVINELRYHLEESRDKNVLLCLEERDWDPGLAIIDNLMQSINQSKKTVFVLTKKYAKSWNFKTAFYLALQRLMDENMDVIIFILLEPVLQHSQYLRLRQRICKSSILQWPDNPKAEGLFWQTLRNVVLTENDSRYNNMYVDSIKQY
Assay: HEK293-Blue-hTLR-8 cells assay (SEAP reporter, R848 stimulation)
Assay type: cell-based
Settings: HEK293-Blue-hTLR8 cells, R848, 20 hrs; lowest tested concentration 0.0032
Experimental: The following tests were carried out in order to determine the activity of the compounds of this invention in HEK293-Blue-hTLR-7/8/9 cells assay.
HEK293-Blue-hTLR-8 Cells Assay:
A stable HEK293-Blue-hTLR-8 cell line was purchased from InvivoGen (Cat. #: hkb-htlr8, San Diego, Calif., USA). These cells were originally designed for studying the stimulation of human TLR8 by monitoring the activation of NF-κB. A SEAP (secreted embryonic alkaline phosphatase) reporter gene was placed under the control of the IFN-β minimal promoter fused to five NF-κB and AP-1-binding sites. The SEAP was induced by activating NF-κB and AP-1 via stimulating HEK-Blue hTLR8 cells with TLR8 ligands. Therefore the reporter expression was declined by TLR8 antagonist under the stimulation of a ligand, such as R848, for incubation of 20 hrs. The cell culture supernatant SEAP reporter activity was determined using QUANTI-Blue™kit (Cat. #: rep-qb1, Invivogen, San Diego, Calif., USA) at a wavelength of 640 nm, a detection medium that turns purple or blue in the presence of alkaline phosphatase.
HEK293-Blue-hTLR8 cells were incubated at a density of […] cells/mL in a volume of 170 μL in a 96-well plate in Dulbecco's Modified Eagle's medium (DMEM) containing 4.5 g/L glucose, 50 U/mL penicillin, […], […], 2 mM L-glutamine, 10% (v/v) heat-inactivated fetal bovine serum with addition of 20 μL test compound in a serial dilution in the presence of final DMSO at 1% and 10 μL of 60 uM R848 in above DMEM, perform incubation under 37° C. in a CO2 incubator for 20 hrs. Then 20 μL of the supernatant from each well was incubated with 180 μL Quanti-blue substrate solution at 37° C. for 2 hrs and the absorbance was read at 620˜655 nm using a spectrophotometer. The signalling pathway that TLR8 activation leads to downstream NF-κB activation has been widely accepted, and therefore similar reporter assay was modified for evaluating TLR8 antagonist.

Row | SMILES | IC50
1 | C[C@H]1C[C@@H](N2CCc3cc(N4CCNCC4)ccc3C2)CN(c2ccc(C#N)c3ncccc23)C1 (relative stereo) [Example 24, 5-[cis-3-methyl-5-(6-piperazin-1-yl-3,4-dihydro-1H-isoquinolin-2-yl)-1-piperidyl]quinoline-8-carbonitrile] | < 3.2 nM
2 | C[C@H]1C[C@@H](NCc2ccc(N3CCNCC3)cc2)CN(c2ccc(C#N)c3ncccc23)C1 [Example 1, 5-[(3S,5R)-3-methyl-5-[(4-piperazin-1-ylphenyl)methylamino]1-piperidyl]quinoline-8-carbonitrile] | < 3.2 nM
3 | C[C@H]1C[C@@H](NCc2ccc(C3CCNCC3)cc2)CN(c2ccc(C#N)c3ncccc23)C1 [Example 2, 5-[(3S,5R)-3-methyl-5-[[4-(4-piperidyl)phenyl]methylamino]-1-piperidyl]quinoline-8-carbonitrile] | 6 nM
4 | C[C@H]1C[C@@H](NCc2ccc(N3CCNCC3)cc2)CN(c2ccc(C#N)c3nccnc23)C1 [Example 3, 8-[(3S,5R)-3-methyl-5-[(4-piperazin-1-ylphenyl)methylamino]-1-piperidyl]quinoxaline-5-carbonitrile] | 4 nM
5 | C[C@H]1C[C@@H](NCc2ccc(N3CCNCC3)cc2F)CN(c2ccc(C#N)c3ncccc23)C1 [Example 4, 5-[(3R,58)-3-[(2-fluoro-4-piperazin-1-yl-phenyl)methylamino]-5-methyl-1-piperidyl]quinoline-8-carbonitrile] | < 3.2 nM
6 | C[C@H]1C[C@@H](NCc2ccc(N3CCNCC3)cn2)CN(c2ccc(C#N)c3ncccc23)C1 [Example 5, 5-[(3S,5R)-3-methyl-5-[(5-piperazin-1-yl-2-pyridyl)methylamino]-1-piperidyl]quinoline-8-carbonitrile] | 6 nM
7 | C[C@H]1C[C@@H](NCc2cccc(N3CCN(C)CC3)c2)CN(c2ccc(C#N)c3ncccc23)C1 [Example 6, 5-[(3S,5R)-3-methyl-5-[[3-(4-methylpiperazin-1-yl)phenyl]methylamino]-1-piperidyl]quinoline-8-carbonitrile] | 4 nM
8 | C[C@H]1C[C@@H](NCc2ccc(N3CCN(C)CC3)cc2)CN(c2ccc(C#N)c3ncccc23)C1 [Example 7, 5-[(3S,5R)-3-methyl-5-[[4-(4-methylpiperazin-1-yl)phenyl]methylamino]-1-piperidyl]quinoline-8-carbonitrile] | < 3.2 nM
9 | C[C@H]1C[C@@H](NCc2cccc(N3CCNCC3)c2)CN(c2ccc(C#N)c3ncccc23)C1 [Example 8, 5-[(3S,5R)-3-methyl-5-[(3-piperazin-1-ylphenyl)methylamino]-1-piperidyl]quinoline-8-carbonitrile] | 9 nM
10 | C[C@H]1C[C@@H](N(C)Cc2ccc(N3CCNCC3)cc2)CN(c2ccc(C#N)c3ncccc23)C1 [Example 9, 5-[(3S,5R)-3-methyl-5-[methyl-[(4-piperazin-1-ylphenyl)methyl]amino]-1-piperidyl]quinoline-8-carbonitrile] | 5 nM
11 | C[C@H]1C[C@@H](NCc2ccc(N3CCNCC3)nc2)CN(c2ccc(C#N)c3ncccc23)C1 [Example 10] | < 3.2 nM
12 | C[C@H]1C[C@@H](NCc2ccc3c(c2)CCNC3)CN(c2ccc(C#N)c3ncccc23)C1 [Example 11, 5-[(3S,5R)-3-methyl-5-(1,2,3,4-tetrahydroisoquinolin-6-ylmethylamino)-1-piperidyl]quinoline-8-carbonitrile] | < 3.2 nM
13 | C[C@H]1C[C@@H](N2Cc3ccc(N4CCNCC4)cc3C2)CN(c2ccc(C#N)c3ncccc23)C1 [Example 12, 5-[(3S,5R)-3-methyl-5-(5-piperazin-1-ylisoindolin-2-yl)-1-piperidyl]quinoline-8-carbonitrile] | < 3.2 nM
14 | C[C@H]1C[C@@H](NCc2ccc(N3CCC(N)C3)cc2)CN(c2ccc(C#N)c3ncccc23)C1 (stereo partly drawn) [Example 13, 5-[(3R,5S)-3-[[4-(3-aminopyrrolidin-1-yl)phenyl]methylamino]-5-methyl-1-piperidyl]quinoline-8-carbonitrile] | 6 nM
15 | Cc1cc(-c2ccc(CN[C@@H]3C[C@H](C)CN(c4ccc(C#N)c5ncccc45)C3)cc2)cc(C)n1 [Example 15, 5-[(3R,5S)-3-[[4-(2,6-dimethyl-4-pyridyl)phenyl]methylamino]-5-methyl-1-piperidyl]quinoline-8-carbonitrile] | 10 nM
16 | C[C@H]1C[C@@H](NCc2cnc(N3CCN(C)CC3)nc2)CN(c2ccc(C#N)c3ncccc23)C1 [Example 16, 5-[(3S,5R)-3-methyl-5-[[2-(4-methylpiperazin-1-yl)pyrimidin-5-yl]methylamino]-1-piperidyl]quinoline-8-carbonitrile] | < 3.2 nM
17 | C[C@H]1C[C@@H](NCc2cnc(N3CCNCC3)nc2)CN(c2ccc(C#N)c3ncccc23)C1 [Example 17, 5-[(3S,5R)-3-methyl-5-[(2-piperazin-1-ylpyrimidin-5-yl)methylamino]-1-piperidyl]quinoline-8-carbonitrile] | < 3.2 nM
18 | C[C@H]1C[C@@H](NCc2ccc(N3CCN(C)CC3)cn2)CN(c2ccc(C#N)c3ncsc23)C1 [Example 18, 7-[(3S,5R)-3-methyl-5-[[5-(4-methylpiperazin-1-yl)-2-pyridyl]methylamino]-1-piperidyl]-1,3-benzothiazole-4-carbonitrile] | < 3.2 nM
19 | C[C@H]1C[C@@H](NCc2ccc(N3CCNCC3)cc2)CN(c2ccc(C#N)n3nccc23)C1 [Example 21, 4-[(3S,5R)-3-methyl-5-[(4-piperazin-1-ylphenyl)methylamino]-1-piperidyl]pyrazolo[1,5-a]pyridine-7-carbonitrile] | 42 nM
20 | C[C@H]1C[C@@H](NCc2ccc(N3CCNCC3)cc2)CN(c2ccc(Cl)c3ncccc23)C1 [Example 22, (3R,5S)-1-(8-chloro-5-quinolyl)-5-methyl-N-[(4-piperazin-1-ylphenyl)methyl]piperidin-3-amine] | 5 nM
21 | C[C@H]1C[C@@H](N2Cc3cc(N4CCNCC4)cnc3C2)CN(c2ccc(C#N)c3ncccc23)C1 [Example 23, 5-[(3S,5R)-3-methyl-5-(3-piperazin-1-yl-5,7-dihydropyrrolo[3,4-b]pyridin-6-yl)-1-piperidyl]quinoline-8-carbonitrile] | 4 nM
22 | C[C@H]1C[C@@H](NCc2ncc(N3CCNCC3)cn2)CN(c2ccc(C#N)c3ncccc23)C1 [Example 25, 5-[(3S,5R)-3-methyl-5-[(5-piperazin-1-ylpyrimidin-2-yl)methylamino]-1-piperidyl]quinoline-8-carbonitrile] | < 3.2 nM
23 | CC(N[C@@H]1C[C@H](C)CN(c2ccc(C#N)c3ncccc23)C1)c1ccc(N2CCNCC2)cc1 (stereo partly drawn) [Example 26, 5-[(3S,5R)-3-methyl-5-[1-(4-piperazin-1-ylphenyl)ethylamino]-1-piperidyl]quinoline-8-carbonitrile] | ≤ 3 nM
24 | C[C@H]1C[C@@H](NCc2cnc(N3CCN[C@H](C)C3)nc2)CN(c2ccc(C#N)c3ncccc23)C1 [Example 28, 5-[(3S,5R)-3-methyl-5-[[2-[(3R)-3-methylpiperazin-1-yl]pyrimidin-5-yl]methylamino]-1-piperidyl]quinoline-8-carbonitrile] | < 3.2 nM
